Experimental data published in patent US8901118B2, “Compounds and methods for kinase modulation, and indications therefor” (Plexxikon Inc., priority 2010, dated 2014).

Columns and labels:
BCR-FMS BaF3 cells = target: T1, BCR-FMS BaF3 cells (Homo sapiens, UniProt P07333); experiment: BaF3 BCR-FMS cell proliferation assay (ATPlite); format: cell-based; conditions: read-out: Inhibition of Cell Proliferation IC50, BCR/BaF3 Fms
T1 construct: fused on or other part: P11274 (Breakpoint cluster region protein)
T1 sequence (P07333 582-910): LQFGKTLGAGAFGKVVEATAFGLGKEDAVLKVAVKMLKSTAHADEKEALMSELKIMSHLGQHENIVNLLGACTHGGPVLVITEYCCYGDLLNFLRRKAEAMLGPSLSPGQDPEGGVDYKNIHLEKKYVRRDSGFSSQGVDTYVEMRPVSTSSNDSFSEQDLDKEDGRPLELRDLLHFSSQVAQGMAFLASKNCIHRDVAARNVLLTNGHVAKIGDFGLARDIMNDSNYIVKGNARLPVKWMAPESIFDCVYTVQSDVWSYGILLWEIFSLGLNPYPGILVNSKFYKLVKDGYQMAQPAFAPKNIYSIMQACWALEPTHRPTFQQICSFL
Summary of the method: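 Cells are plated overnight: BaF3 at 10,000/well in G418 medium without WEHI/IL-3, MV-4-11 at 25,000/well in IMDM with 10% FBS. An 8-point 1:3 compound titration (10 μM top) is then added, and plates are incubated 3 days at 37 °C before ATPlite readout and IC50 determination.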

c-Kit kinase = c-Kit kinase (Homo sapiens, UniProt P10721); experiment: c-Kit kinase biochemical activity assay (AlphaScreen, biotin-(E4Y)10 phosphorylation); conditions: 100 μM ATP; read-out: Biochemical Inhibition IC50 Kit
Summary of the method: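 AlphaScreen read-out (streptavidin donor, anti-phosphotyrosine PY20 acceptor beads, EDTA stop) of c-Kit activity. Reaction: 0.75 ng kinase, 100 µM ATP, 30 nM biotin-(E4Y)10, 25 mM HEPES pH 7.5, 2 mM MgCl2, 2 mM MnCl2, 5% DMSO, 1 h room temperature. IC50 derived over an 8-point, two-fold dilution series.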

c-Kit kinase, sequence (P10721 26-976): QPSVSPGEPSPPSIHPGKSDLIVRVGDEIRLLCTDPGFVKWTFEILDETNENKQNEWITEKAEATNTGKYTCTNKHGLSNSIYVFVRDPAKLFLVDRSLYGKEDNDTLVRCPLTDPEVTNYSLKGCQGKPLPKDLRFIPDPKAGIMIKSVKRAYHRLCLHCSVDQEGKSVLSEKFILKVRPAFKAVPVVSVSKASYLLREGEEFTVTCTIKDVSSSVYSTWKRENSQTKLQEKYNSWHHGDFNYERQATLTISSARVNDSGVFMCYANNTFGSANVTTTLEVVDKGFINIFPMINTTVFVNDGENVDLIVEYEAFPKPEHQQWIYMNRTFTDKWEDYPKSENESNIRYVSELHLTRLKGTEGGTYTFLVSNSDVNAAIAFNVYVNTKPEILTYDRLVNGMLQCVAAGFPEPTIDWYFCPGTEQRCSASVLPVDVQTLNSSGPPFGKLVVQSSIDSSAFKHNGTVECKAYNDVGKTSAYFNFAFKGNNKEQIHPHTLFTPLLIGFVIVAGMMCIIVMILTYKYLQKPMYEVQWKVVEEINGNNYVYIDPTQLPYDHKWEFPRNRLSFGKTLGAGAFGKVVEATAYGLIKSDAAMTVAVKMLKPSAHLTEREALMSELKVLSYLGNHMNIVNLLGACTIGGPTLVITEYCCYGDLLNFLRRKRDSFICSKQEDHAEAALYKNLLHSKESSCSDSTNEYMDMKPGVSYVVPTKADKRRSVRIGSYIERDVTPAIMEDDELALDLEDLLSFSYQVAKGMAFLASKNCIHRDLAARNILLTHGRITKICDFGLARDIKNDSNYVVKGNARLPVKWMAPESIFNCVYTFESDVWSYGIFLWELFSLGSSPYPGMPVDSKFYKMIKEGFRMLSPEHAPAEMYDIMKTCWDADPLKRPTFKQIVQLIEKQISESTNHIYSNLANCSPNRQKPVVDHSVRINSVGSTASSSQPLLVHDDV

Row | SMILES | IC50 (BCR-FMS BaF3 cells) [nM] | IC50 (c-Kit kinase) [nM]
1 | COc1ccc(Nc2ccc(C(=O)c3c[nH]c4ncc(C)cc34)c(F)n2)cn1 [Compound P-3040, [2-Fluoro-6-(6-methoxy-pyridin-3-ylamino)-pyridin-3-yl]-(5-methyl-1H-pyrrolo[2,3-b]pyridin-3-yl)-methanone] | < 100 | > 1000
2 | COc1ccccc1Nc1ncc(Cc2c[nH]c3ncc(Cl)cc23)cn1 [Compound P-3016, [5-(5-Chloro-1H-pyrrolo[2,3-b]pyridin-3-ylmethyl)-pyrimidin-2-yl]-(2-methoxy-phenyl)-amine] | < 1000 | < 100
3 | CCOc1ncnc2[nH]cc(C(=O)c3ccc(Nc4ccc(OC)nc4)nc3F)c12 [Compound P-4025, (4-Ethoxy-7H-pyrrolo[2,3-d]pyrimidin-5-yl)-[2-fluoro-6-(6-methoxy-pyridin-3-ylamino)-pyridin-3-yl]-methanone] | < 100 | > 1000
4 | CCc1ccc(Nc2ccc(C(=O)c3c[nH]c4ncnc(C5CC5)c34)c(F)n2)cn1 [Compound P-4029, (4-Cyclopropyl-7H-pyrrolo[2,3-d]pyrimidin-5-yl)-[6-(6-ethyl-pyridin-3-ylamino)-2-fluoro-pyridin-3-yl]-methanone] | < 100 | < 100

Continued, values first:

Row | IC50 (BCR-FMS BaF3 cells) [nM] | IC50 (c-Kit kinase) [nM] | SMILES
5 | < 10 | < 100 | CCc1ccc(Nc2ccc(Cc3c[nH]c4ncnc(OCCOC)c34)c(F)n2)cn1 [Compound P-4016, (6-Ethyl-pyridin-3-yl)-{6-fluoro-5-[4-(2-methoxy-ethoxy)-7H-pyrrolo[2,3-d]pyrimidin-5-ylmethyl]-pyridin-2-yl}-amine]
6 | < 10 | < 100 | CCc1ccc(Nc2ccc(Cc3c[nH]c4ncnc(C5CC5)c34)c(F)n2)cn1 [Compound P-4028, [5-(4-Cyclopropyl-7H-pyrrolo[2,3-d]pyrimidin-5-ylmethyl)-6-fluoro-pyridin-2-yl]-(6-ethyl-pyridin-3-yl)-amine]
7 | < 100 | < 1000 | COc1ccc(Nc2ccc(Cc3c[nH]c4ncnc(C)c34)c(F)n2)cn1 [Compound P-4002, [6-Fluoro-5-(4-methyl-7H-pyrrolo[2,3-d]pyrimidin-5-ylmethyl)-pyridin-2-yl]-(6-methoxy-pyridin-3-yl)-amine]
8 | < 100 | < 100 | CCn1cc(Nc2ccc(Cc3c[nH]c4ncnc(OCCOC)c34)c(F)n2)cn1 [Compound P-4014, (1-Ethyl-1H-pyrazol-4-yl)-{6-fluoro-5-[4-(2-methoxy-ethoxy)-7H-pyrrolo[2,3-d]pyrimidin-5-ylmethyl]-pyridin-2-yl}-amine]
